Results reported in paper PMC10905675, “INX-315, a Selective CDK2 Inhibitor, Induces Cell Cycle Arrest and Senescence in Solid Tumors” (Cancer Discovery, 2023).

How the values were obtained:
Assay in all cases: SelectScreen ZLYTE
Type in all cases: biochemical
Conditions in all cases: INX-0315 at 100nM
BLK = molecular target: T1, BLK (Homo sapiens, UniProt P51451)
T1 construct: purchased Thermo Fisher Scientific SelectScreen (plus Nanosyn / Reaction Biology for CDK/cyclin lines)
From the text: (§1) INX-315 was first evaluated in the SelectScreen Biochemical Kinase Profiling at Thermo Fisher Scientific (Madison, WI). The primary screen consisted of INX-315 dosed at a single concentration of 100 nmol/L in 1% DMSO across each platform within the SelectScreen array of assays, LanthaScreen Eu Kinase Binding Assay; AdaptaScreen; and Z'LyteScreen using preestablished conditions at Thermo Fisher Scientific as shown in Supplementary Table S2. […] The follow-up screen consisted of 10-point dose–response curves for INX-315 from 1 µmol/L to 0.0495 nmol/L.

DCAMKL1 (DCLK1) = molecular target: T2, DCAMKL1 (DCLK1) (Homo sapiens, UniProt O15075)
T2 construct: purchased Thermo Fisher Scientific SelectScreen (plus Nanosyn / Reaction Biology for CDK/cyclin lines)
From the text: as §1

PAK6 = molecular target: T3, PAK6 (Homo sapiens, UniProt Q9NQU5)
T3 construct: purchased Thermo Fisher Scientific SelectScreen (plus Nanosyn / Reaction Biology for CDK/cyclin lines)
From the text: as §1

NEK4 = molecular target: T4, NEK4 (Homo sapiens, UniProt P51957)
T4 construct: purchased Thermo Fisher Scientific SelectScreen (plus Nanosyn / Reaction Biology for CDK/cyclin lines)
From the text: as §1

STK3 (MST2) = molecular target: T5, STK3 (MST2) (Homo sapiens, UniProt Q13188)
T5 construct: purchased Thermo Fisher Scientific SelectScreen (plus Nanosyn / Reaction Biology for CDK/cyclin lines)
From the text: as §1

MUSK = molecular target: T6, MUSK (Homo sapiens, UniProt O15146)
T6 construct: purchased Thermo Fisher Scientific SelectScreen (plus Nanosyn / Reaction Biology for CDK/cyclin lines)
From the text: as §1

MAPKAPK5 (PRAK) = molecular target: T7, MAPKAPK5 (PRAK) (Homo sapiens, UniProt Q8IW41)
T7 construct: purchased Thermo Fisher Scientific SelectScreen (plus Nanosyn / Reaction Biology for CDK/cyclin lines)
From the text: as §1

PAK7 (KIAA1264) = molecular target: T8, PAK7 (KIAA1264) (Homo sapiens, UniProt Q9P286)
T8 construct: purchased Thermo Fisher Scientific SelectScreen (plus Nanosyn / Reaction Biology for CDK/cyclin lines)
From the text: as §1

PLK3 = molecular target: T9, PLK3 (Homo sapiens, UniProt Q9H4B4)
T9 construct: purchased Thermo Fisher Scientific SelectScreen (plus Nanosyn / Reaction Biology for CDK/cyclin lines)
From the text: as §1

FGFR3 V555M = molecular target: T10, FGFR3 V555M (Homo sapiens, UniProt P22607, V555M)
T10 construct: purchased Thermo Fisher Scientific SelectScreen (plus Nanosyn / Reaction Biology for CDK/cyclin lines)
From the text: as §1

MAP3K9 (MLK1) = molecular target: T11, MAP3K9 (MLK1) (Homo sapiens, UniProt P80192)
T11 construct: purchased Thermo Fisher Scientific SelectScreen (plus Nanosyn / Reaction Biology for CDK/cyclin lines)
From the text: as §1

ABL1 F317I = molecular target: T12, ABL1 F317I (Homo sapiens, UniProt P00519, F317I)
T12 construct: purchased Thermo Fisher Scientific SelectScreen (plus Nanosyn / Reaction Biology for CDK/cyclin lines)
From the text: as §1

LCK = molecular target: T13, LCK (Homo sapiens, UniProt P06239)
T13 construct: purchased Thermo Fisher Scientific SelectScreen (plus Nanosyn / Reaction Biology for CDK/cyclin lines)
From the text: as §1

DAPK3 (ZIPK) = molecular target: T14, DAPK3 (ZIPK) (Homo sapiens, UniProt O43293)
T14 construct: purchased Thermo Fisher Scientific SelectScreen (plus Nanosyn / Reaction Biology for CDK/cyclin lines)
From the text: as §1

MAPKAPK2 = molecular target: T15, MAPKAPK2 (Homo sapiens, UniProt P49137)
T15 construct: purchased Thermo Fisher Scientific SelectScreen (plus Nanosyn / Reaction Biology for CDK/cyclin lines)
From the text: as §1

EPHB2 = molecular target: T16, EPHB2 (Homo sapiens, UniProt P29323)
T16 construct: purchased Thermo Fisher Scientific SelectScreen (plus Nanosyn / Reaction Biology for CDK/cyclin lines)
From the text: as §1

MAP4K4 (HGK) = molecular target: T17, MAP4K4 (HGK) (Homo sapiens, UniProt O95819)
T17 construct: purchased Thermo Fisher Scientific SelectScreen (plus Nanosyn / Reaction Biology for CDK/cyclin lines)
From the text: as §1

BRSK1 (SAD1) = molecular target: T18, BRSK1 (SAD1) (Homo sapiens, UniProt Q8TDC3)
T18 construct: purchased Thermo Fisher Scientific SelectScreen (plus Nanosyn / Reaction Biology for CDK/cyclin lines)
From the text: as §1

PRKD2 (PKD2) = molecular target: T19, PRKD2 (PKD2) (Homo sapiens, UniProt Q9BZL6)
T19 construct: purchased Thermo Fisher Scientific SelectScreen (plus Nanosyn / Reaction Biology for CDK/cyclin lines)
From the text: as §1

FLT1 (VEGFR1) = molecular target: T20, FLT1 (VEGFR1) (Homo sapiens, UniProt P17948)
T20 construct: purchased Thermo Fisher Scientific SelectScreen (plus Nanosyn / Reaction Biology for CDK/cyclin lines)
From the text: as §1

EPHB1 = molecular target: T21, EPHB1 (Homo sapiens, UniProt P54762)
T21 construct: purchased Thermo Fisher Scientific SelectScreen (plus Nanosyn / Reaction Biology for CDK/cyclin lines)
From the text: as §1

MARK2 = molecular target: T22, MARK2 (Homo sapiens, UniProt Q7KZI7)
T22 construct: purchased Thermo Fisher Scientific SelectScreen (plus Nanosyn / Reaction Biology for CDK/cyclin lines)
From the text: as §1

CAMK1D (CaMKI delta) = molecular target: T23, CAMK1D (CaMKI delta) (Homo sapiens, UniProt Q8IU85)
T23 construct: purchased Thermo Fisher Scientific SelectScreen (plus Nanosyn / Reaction Biology for CDK/cyclin lines)
From the text: as §1

STK25 (YSK1) = molecular target: T24, STK25 (YSK1) (Homo sapiens, UniProt O00506)
T24 construct: purchased Thermo Fisher Scientific SelectScreen (plus Nanosyn / Reaction Biology for CDK/cyclin lines)
From the text: as §1

PRKG1 = molecular target: T25, PRKG1 (Homo sapiens, UniProt Q13976)
T25 construct: purchased Thermo Fisher Scientific SelectScreen (plus Nanosyn / Reaction Biology for CDK/cyclin lines)
From the text: as §1

SRMS (Srm) = molecular target: T26, SRMS (Srm) (Homo sapiens, UniProt Q9H3Y6)
T26 construct: purchased Thermo Fisher Scientific SelectScreen (plus Nanosyn / Reaction Biology for CDK/cyclin lines)
From the text: as §1

MAPK8 (JNK1) = molecular target: T27, MAPK8 (JNK1) (Homo sapiens, UniProt P45983)
T27 construct: purchased Thermo Fisher Scientific SelectScreen (plus Nanosyn / Reaction Biology for CDK/cyclin lines)
From the text: as §1

CLK3 = molecular target: T28, CLK3 (Homo sapiens, UniProt P49761)
T28 construct: purchased Thermo Fisher Scientific SelectScreen (plus Nanosyn / Reaction Biology for CDK/cyclin lines)
From the text: as §1

CAMK4 (CaMKIV) = molecular target: T29, CAMK4 (CaMKIV) (Homo sapiens, UniProt Q16566)
T29 construct: purchased Thermo Fisher Scientific SelectScreen (plus Nanosyn / Reaction Biology for CDK/cyclin lines)
From the text: as §1

CSNK2A2 (CK2 alpha 2) = molecular target: T30, CSNK2A2 (CK2 alpha 2) (Homo sapiens, UniProt P19784)
T30 construct: purchased Thermo Fisher Scientific SelectScreen (plus Nanosyn / Reaction Biology for CDK/cyclin lines)
From the text: as §1

FGFR3 K650E = molecular target: T31, FGFR3 K650E (Homo sapiens, UniProt P22607, K650E)
T31 construct: purchased Thermo Fisher Scientific SelectScreen (plus Nanosyn / Reaction Biology for CDK/cyclin lines)
From the text: as §1

NEK2 = molecular target: T32, NEK2 (Homo sapiens, UniProt P51955)
T32 construct: purchased Thermo Fisher Scientific SelectScreen (plus Nanosyn / Reaction Biology for CDK/cyclin lines)
From the text: as §1

CLK1 = molecular target: T33, CLK1 (Homo sapiens, UniProt P49759)
T33 construct: purchased Thermo Fisher Scientific SelectScreen (plus Nanosyn / Reaction Biology for CDK/cyclin lines)
From the text: as §1

MAPK7 (ERK5) = molecular target: T34, MAPK7 (ERK5) (Homo sapiens, UniProt Q13164)
T34 construct: purchased Thermo Fisher Scientific SelectScreen (plus Nanosyn / Reaction Biology for CDK/cyclin lines)
From the text: as §1

PRKACA (PKA) = molecular target: T35, PRKACA (PKA) (Homo sapiens, UniProt P17612)
T35 construct: purchased Thermo Fisher Scientific SelectScreen (plus Nanosyn / Reaction Biology for CDK/cyclin lines)
From the text: as §1

DYRK1A = molecular target: T36, DYRK1A (Homo sapiens, UniProt Q13627)
T36 construct: purchased Thermo Fisher Scientific SelectScreen (plus Nanosyn / Reaction Biology for CDK/cyclin lines)
From the text: as §1

AKT1 (PKB alpha) = molecular target: T37, AKT1 (PKB alpha) (Homo sapiens, UniProt P31749)
T37 construct: purchased Thermo Fisher Scientific SelectScreen (plus Nanosyn / Reaction Biology for CDK/cyclin lines)
From the text: as §1

SRC = molecular target: T38, SRC (Homo sapiens, UniProt P12931)
T38 construct: purchased Thermo Fisher Scientific SelectScreen (plus Nanosyn / Reaction Biology for CDK/cyclin lines)
From the text: as §1

T11 sequence (P80192 whole entry): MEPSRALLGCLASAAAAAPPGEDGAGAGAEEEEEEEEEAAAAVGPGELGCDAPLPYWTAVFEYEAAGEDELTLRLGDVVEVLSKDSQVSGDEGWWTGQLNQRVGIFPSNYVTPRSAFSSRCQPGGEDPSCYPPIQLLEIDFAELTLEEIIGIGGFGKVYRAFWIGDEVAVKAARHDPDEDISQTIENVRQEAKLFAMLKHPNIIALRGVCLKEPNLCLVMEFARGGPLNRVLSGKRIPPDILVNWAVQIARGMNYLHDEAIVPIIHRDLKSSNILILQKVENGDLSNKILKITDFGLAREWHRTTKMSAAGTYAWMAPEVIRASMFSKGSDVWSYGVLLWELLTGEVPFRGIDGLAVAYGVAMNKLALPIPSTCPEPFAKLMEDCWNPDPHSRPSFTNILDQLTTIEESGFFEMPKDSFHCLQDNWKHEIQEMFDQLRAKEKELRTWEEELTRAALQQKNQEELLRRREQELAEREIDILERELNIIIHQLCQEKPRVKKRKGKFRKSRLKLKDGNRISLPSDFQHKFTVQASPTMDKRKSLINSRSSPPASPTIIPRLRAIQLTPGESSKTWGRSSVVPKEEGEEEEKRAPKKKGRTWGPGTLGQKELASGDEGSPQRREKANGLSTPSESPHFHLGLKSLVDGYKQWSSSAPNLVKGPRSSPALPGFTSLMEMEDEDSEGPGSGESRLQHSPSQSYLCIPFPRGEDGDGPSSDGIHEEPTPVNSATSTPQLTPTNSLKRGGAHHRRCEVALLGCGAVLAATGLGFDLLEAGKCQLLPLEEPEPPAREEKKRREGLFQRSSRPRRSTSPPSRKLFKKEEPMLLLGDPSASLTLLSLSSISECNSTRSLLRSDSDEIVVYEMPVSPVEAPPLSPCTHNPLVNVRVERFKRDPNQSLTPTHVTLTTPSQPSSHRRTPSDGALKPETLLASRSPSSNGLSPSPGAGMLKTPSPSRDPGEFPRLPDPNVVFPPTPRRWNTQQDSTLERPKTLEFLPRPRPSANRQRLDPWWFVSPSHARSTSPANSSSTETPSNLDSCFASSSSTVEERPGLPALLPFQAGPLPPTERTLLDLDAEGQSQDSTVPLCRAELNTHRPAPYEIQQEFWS
T32 sequence (P51955 whole entry): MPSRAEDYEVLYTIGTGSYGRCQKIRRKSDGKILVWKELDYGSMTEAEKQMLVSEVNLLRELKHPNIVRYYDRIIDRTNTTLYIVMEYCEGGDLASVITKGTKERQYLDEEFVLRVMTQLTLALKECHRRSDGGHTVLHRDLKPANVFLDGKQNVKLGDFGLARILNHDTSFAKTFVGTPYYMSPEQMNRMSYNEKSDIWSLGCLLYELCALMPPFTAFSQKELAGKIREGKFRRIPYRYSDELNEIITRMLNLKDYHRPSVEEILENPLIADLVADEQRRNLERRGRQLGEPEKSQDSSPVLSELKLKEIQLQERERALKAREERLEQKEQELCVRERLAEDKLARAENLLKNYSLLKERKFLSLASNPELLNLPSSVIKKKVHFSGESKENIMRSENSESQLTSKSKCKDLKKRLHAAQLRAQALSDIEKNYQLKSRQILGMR
T30 sequence (P19784 whole entry): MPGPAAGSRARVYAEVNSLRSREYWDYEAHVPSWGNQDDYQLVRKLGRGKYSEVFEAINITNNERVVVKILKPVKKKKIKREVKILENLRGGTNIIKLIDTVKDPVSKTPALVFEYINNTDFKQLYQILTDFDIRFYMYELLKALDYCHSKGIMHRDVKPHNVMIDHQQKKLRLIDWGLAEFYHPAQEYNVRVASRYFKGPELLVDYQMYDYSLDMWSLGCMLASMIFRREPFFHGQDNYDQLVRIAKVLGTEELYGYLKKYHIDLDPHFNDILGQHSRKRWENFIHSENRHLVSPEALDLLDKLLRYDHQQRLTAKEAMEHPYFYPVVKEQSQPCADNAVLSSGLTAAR
T27 sequence (P45983 whole entry): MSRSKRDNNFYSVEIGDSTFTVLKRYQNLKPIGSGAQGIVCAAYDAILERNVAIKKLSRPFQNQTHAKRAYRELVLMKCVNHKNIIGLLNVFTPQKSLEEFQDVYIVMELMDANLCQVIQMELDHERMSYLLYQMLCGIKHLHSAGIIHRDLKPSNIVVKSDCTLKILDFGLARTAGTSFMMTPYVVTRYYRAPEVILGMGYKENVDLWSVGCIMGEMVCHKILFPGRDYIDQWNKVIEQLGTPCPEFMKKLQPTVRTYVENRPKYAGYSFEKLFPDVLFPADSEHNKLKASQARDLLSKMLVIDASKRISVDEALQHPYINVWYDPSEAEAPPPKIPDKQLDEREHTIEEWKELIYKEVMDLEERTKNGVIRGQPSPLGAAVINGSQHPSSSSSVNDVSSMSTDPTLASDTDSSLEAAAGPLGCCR
T13 sequence (P06239 whole entry): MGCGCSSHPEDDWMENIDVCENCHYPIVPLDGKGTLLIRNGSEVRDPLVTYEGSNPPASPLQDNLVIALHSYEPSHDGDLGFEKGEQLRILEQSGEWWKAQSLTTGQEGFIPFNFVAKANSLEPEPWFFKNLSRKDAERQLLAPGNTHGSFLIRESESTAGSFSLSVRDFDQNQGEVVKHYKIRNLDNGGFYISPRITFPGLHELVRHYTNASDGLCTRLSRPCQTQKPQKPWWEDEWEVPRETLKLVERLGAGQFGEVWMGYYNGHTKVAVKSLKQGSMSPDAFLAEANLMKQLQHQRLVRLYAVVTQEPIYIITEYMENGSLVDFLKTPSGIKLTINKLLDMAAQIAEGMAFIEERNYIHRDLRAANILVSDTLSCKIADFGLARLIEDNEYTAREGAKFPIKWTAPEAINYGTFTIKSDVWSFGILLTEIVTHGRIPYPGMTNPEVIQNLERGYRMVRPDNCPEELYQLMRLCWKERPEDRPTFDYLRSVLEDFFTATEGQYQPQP
T37 sequence (P31749 whole entry): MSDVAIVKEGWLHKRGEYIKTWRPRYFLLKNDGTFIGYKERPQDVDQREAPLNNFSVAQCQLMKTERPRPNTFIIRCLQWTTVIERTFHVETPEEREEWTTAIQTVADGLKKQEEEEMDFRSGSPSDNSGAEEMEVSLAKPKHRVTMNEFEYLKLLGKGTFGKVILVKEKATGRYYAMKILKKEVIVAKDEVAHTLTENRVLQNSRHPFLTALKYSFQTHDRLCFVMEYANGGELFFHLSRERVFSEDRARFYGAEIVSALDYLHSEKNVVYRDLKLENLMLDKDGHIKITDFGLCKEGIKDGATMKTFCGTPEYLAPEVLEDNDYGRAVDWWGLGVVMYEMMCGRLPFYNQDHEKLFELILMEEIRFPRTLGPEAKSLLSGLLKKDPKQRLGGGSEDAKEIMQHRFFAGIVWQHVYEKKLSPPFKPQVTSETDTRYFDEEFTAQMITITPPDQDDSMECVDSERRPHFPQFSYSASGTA
T4 sequence (P51957 whole entry): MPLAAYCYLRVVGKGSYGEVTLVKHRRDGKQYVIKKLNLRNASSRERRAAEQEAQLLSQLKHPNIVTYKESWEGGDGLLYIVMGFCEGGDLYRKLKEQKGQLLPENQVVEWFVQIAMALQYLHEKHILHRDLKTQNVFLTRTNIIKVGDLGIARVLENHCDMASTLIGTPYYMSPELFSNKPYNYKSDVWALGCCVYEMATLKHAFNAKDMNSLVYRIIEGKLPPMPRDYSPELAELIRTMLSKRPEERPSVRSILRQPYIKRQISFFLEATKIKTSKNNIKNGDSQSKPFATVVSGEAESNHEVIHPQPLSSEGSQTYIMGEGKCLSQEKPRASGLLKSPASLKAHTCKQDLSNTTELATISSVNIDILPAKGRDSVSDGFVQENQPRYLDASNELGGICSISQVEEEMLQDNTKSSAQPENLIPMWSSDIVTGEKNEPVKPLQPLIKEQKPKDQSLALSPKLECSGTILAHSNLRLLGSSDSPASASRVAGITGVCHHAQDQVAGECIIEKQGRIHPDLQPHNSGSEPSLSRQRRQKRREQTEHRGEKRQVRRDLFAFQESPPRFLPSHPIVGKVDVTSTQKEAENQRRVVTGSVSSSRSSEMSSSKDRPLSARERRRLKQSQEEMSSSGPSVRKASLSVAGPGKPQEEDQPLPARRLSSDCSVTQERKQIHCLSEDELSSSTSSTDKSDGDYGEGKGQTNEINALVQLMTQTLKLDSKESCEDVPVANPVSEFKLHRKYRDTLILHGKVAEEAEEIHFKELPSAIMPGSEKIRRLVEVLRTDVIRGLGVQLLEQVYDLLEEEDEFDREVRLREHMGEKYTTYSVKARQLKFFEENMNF
T38 sequence (P12931 whole entry): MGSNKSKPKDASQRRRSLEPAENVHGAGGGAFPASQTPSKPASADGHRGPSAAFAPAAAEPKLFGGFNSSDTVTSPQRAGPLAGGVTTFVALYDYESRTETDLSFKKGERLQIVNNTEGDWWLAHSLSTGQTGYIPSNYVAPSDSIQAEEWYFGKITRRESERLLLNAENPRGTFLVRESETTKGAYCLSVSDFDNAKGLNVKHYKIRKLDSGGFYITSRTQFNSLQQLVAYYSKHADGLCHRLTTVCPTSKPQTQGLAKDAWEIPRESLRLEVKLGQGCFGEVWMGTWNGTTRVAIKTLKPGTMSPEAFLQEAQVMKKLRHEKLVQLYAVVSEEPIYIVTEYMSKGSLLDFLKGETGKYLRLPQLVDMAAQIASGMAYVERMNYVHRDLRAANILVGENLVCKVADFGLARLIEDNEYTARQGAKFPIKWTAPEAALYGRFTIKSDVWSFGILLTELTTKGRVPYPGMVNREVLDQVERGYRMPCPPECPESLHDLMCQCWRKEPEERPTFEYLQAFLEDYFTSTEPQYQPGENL

## NS(=O)(=O)c1ccc(Nc2ncc3cc4n(c3n2)C2(CCCCC2)C(=O)NN4)cc1 [INX-315]
BLK
  inhibition at 0.1 µM: 11%
DCAMKL1 (DCLK1)
  inhibition at 0.1 µM: 9%
PAK6
  inhibition at 0.1 µM: 19%
NEK4
  inhibition at 0.1 µM: 15%
STK3 (MST2)
  inhibition at 0.1 µM: 19%
MUSK
  inhibition at 0.1 µM: 8%
MAPKAPK5 (PRAK)
  inhibition at 0.1 µM: 2%
PAK7 (KIAA1264)
  inhibition at 0.1 µM: 1%
PLK3
  inhibition at 0.1 µM: -2%
FGFR3 V555M
  inhibition at 0.1 µM: 21%
MAP3K9 (MLK1)
  inhibition at 0.1 µM: 22%
ABL1 F317I
  inhibition at 0.1 µM: 8%
LCK
  inhibition at 0.1 µM: 19%
DAPK3 (ZIPK)
  inhibition at 0.1 µM: 6%
MAPKAPK2
  inhibition at 0.1 µM: 3%
EPHB2
  inhibition at 0.1 µM: 20%
MAP4K4 (HGK)
  inhibition at 0.1 µM: 23%
BRSK1 (SAD1)
  inhibition at 0.1 µM: 16%
PRKD2 (PKD2)
  inhibition at 0.1 µM: 5%
FLT1 (VEGFR1)
  inhibition at 0.1 µM: 11%
EPHB1
  inhibition at 0.1 µM: 19%
MARK2
  inhibition at 0.1 µM: 9%
CAMK1D (CaMKI delta)
  inhibition at 0.1 µM: 1%
STK25 (YSK1)
  inhibition at 0.1 µM: 1%
PRKG1
  inhibition at 0.1 µM: 7%
SRMS (Srm)
  inhibition at 0.1 µM: 17%
MAPK8 (JNK1)
  inhibition at 0.1 µM: 6%
CLK3
  inhibition at 0.1 µM: -1%
CAMK4 (CaMKIV)
  inhibition at 0.1 µM: 0%
CSNK2A2 (CK2 alpha 2)
  inhibition at 0.1 µM: 4%
FGFR3 K650E
  inhibition at 0.1 µM: 31%
NEK2
  inhibition at 0.1 µM: 3%
CLK1
  inhibition at 0.1 µM: 5%
MAPK7 (ERK5)
  inhibition at 0.1 µM: 5%
PRKACA (PKA)
  inhibition at 0.1 µM: 4%
DYRK1A
  inhibition at 0.1 µM: 1%
AKT1 (PKB alpha)
  inhibition at 0.1 µM: 6%
SRC
  inhibition at 0.1 µM: 8%
